test system: ATXN1(60Q); assay: Daoy-ATXN1(60Q)-mATXN1 MSD assay (CTG normalized); type: cell-based; conditions: Daoy-Flag-ATXN1(60Q) stable cells, compound added Day 2, lysis Day 3, final DMSO 0.3%, read-out: Daoy-ATXN1(60Q)-mATXN1 MSD (CTG normalized) DC50
Description: Protocol for MSD Assay: Daoy-ATXN1(600)-mATXN1 MSD (CTG normalized)
The Flag-ATXN1(60Q) gene is synthesized by Genescript and cloned into the pLVX-IRES-Puro vector (Takarabio, catalog No. 632183) using EcoRI/BamHI restriction enzyme sites. Lentivirus is made by transfecting HEK293T cells with pLVX-IRES-Puro-Flag-ATXN1(60Q) plasmids and packaging plasmids psPAX2 and pMD2.G at 4:3:1 ratio (8:6:[…], respectively) in 10 cm plates, and are harvested at 48 hours post transfection. Daoy cells (ATCC catalog No. HTB-186) seeded in T25 flasks are infected with the lentivirus in the presence of 8 µg/mL polybrene (Sigma, TR-1003-G) for 24 hours. 48 hours post infection, the cells are selected using 0.5 […] (Sigma, P8833) for more than 5 days until all cells in the uninfected group die. The expression of Flag-ATXN1(60Q) is verified by anti-Flag immunoblot using anti-Flag antibody (Sigma, F1804-200UG, M2).
As explained above, Daoy-Flag-ATXN1(60Q) cells are prepared as a stable cell line by infecting Daoy cells with lentivirus. The media for the cells is EMEM (ATTC, 30-2008) with 10% fetal bovin serum (FBS).
On Day 1, the Daoy-Flag-ATXN1(60Q) cells are seeded in a 96 well plate at a concentration of 1.2×10^4/well. On Day 2, the cells are treated with test compounds at test concentrations (compounds are serially diluted with DMSO to obtain test concentrations, such that final DMSO concentration is 0.3%). On Day 3, the cells are washed with 100 μL of phosphate-buffered saline (PBS) per well, and then 30 μL of radioimmuno-precipitation assay (RIPA) buffer (with protease and phosphatase inhibitor cocktail) is added to each well.
The well plate is then cooled on ice for 30 minutes in order to complete lysis, and MSD samples are prepared using 10 μL of Daoy-Flag-ATXN1-60Q lysate and 90 μL of RIPA buffer with gentle mixing. Each MSD sample has a total volume of 100 μL, and is used immediately or stored at −80° C.
A standard Meso Scale Discovery (MSD) plate is coated with anti-Flag (Sigma, F1804-200UG, M2) in PBS at 1:500 dilution ratio and 40 µL/well, and is incubated at 4° C. overnight with shaking at 600 rpm. Then, the MSD plate is washed 3 times with 150 µL/well of 1X TBST (tris-buffered saline (TBS) with Tween 20) buffer, and the MSD plate is blocked with 150 μL of blocking buffer [3% Blocker A in 1X TBST, (3 g Blocker A per 100 mL 1X TBST)] and shaken for 1 hour at 600 rpm at room temperature. Then, the MSD plate is washed three times with 150 μL/well of 1X TBST. Next, the diluted lysate samples (from Sample Preparation above) are added to the MSD plate at 25 μL/well, and the MSD plate is shaken at 600 rpm for 1 hour at room temperature. Then the MSD plate is washed 3 times with 150 μL/well of 1X TBST.
Detection antibody anti-Ataxin 1 (G-bio, ITA1916) (1:500), which is prepared in antibody detection buffer (1% Blocker A in 1X TBST), is then added to the MSD plate at 25 µL/well, and the MSD plate is shaken at 600 rpm for 1 hour at room temperature. The MSD plate is then washed three times with 150 μL/well of 1X TBST. Next, a secondary detection antibody, Goat anti-rabit (GAR) with SULFO-TAG (1:500), which is prepared in antibody detection buffer (1% Blocker A in 1X TBST), is added at 25 μL/well and the MSD plate is shaken at 600 rpm for 1 hour at room temperature. Then the MSD plate is washed 3 times with 150 μL/well of 1X TBST, and 2X MSD reading buffer is added at 150 μL/well (diluted from 4x MSD reading buffer with water). Finally, the signal from each well is measured on the MSD Meso QuickPle SQ120 Plate Reader. DC50 data is calculated using collaborate drug discovery (CDD) software (https://www.collaborativedrug.com/about).

`Cn1cc(N/C(=C2\C(=O)Nc3ccc(Br)cc32)c2ccccc2)c(C(F)(F)F)n1` [Example 51, (Z)-5-bromo-3-(((1-methyl-3-(trifluoromethyl)-1H-pyrazol-4-yl)amino)(phenyl)methylene)indolin-2-one] and `O=C1Nc2ccc(Br)cc2/C1=C(/Nc1cnnc(Cl)c1)c1ccccc1` [Example 47, (Z)-5-bromo-3-((6-chloropyridazin-4-ylamino)(phenyl)methylene)indolin-2-one] cannot be ordered by DC50: over 30 µM for the first, over 30 µM for the second.

`O=C1Nc2ccc(OC(F)(F)F)cc2/C1=C(/NCCO)c1cccc(O)c1` [Example 18, (Z)-3-(((2-hydroxyethyl)amino)(3-hydroxyphenyl)methylene)-5-(trifluoromethoxy) indolin-2-one] and `Nc1cccc(/C(NC2CNC2)=C2/C(=O)Nc3ccc(OC(F)(F)F)cc32)c1` [Example 34, (Z)-3-((3-aminophenyl)(azetidin-3-ylamino)methylene)-5-(trifluoromethoxy) indolin-2-one] cannot be ordered by DC50: under 10 µM for the first, under 10 µM for the second.

`CN1CCC(N/C(=C2\C(=O)Nc3ccc(Br)cc32)c2cccc(O)c2)CC1` [Example 15, (Z)-5-bromo-3-((3-hydroxyphenyl)((1-methylpiperidin-4-yl)amino)methylene) indolin-2-one] and `O=C1Nc2ccc(Br)cc2/C1=C(/NC1CCC1)c1cccc(O)c1` [Example 8, (Z)-5-bromo-3-((cyclobutylamino) (3-hydroxyphenyl)methylene)indolin-2-one] cannot be ordered by DC50: under 10 µM for the first, under 10 µM for the second.

Going from `CCC/C(=C1\C(=O)Nc2ccc(Br)cc21)c1cccc(O)c1` [Example 100, (E)-5-bromo-3-(1-(3-hydroxyphenyl)butylidene)indolin-2-one] to `O=C1Nc2ccc(Br)cc2/C1=C(\c1cccc(O)c1)N1CCCCC1` [Example 12, (Z)-5-bromo-3-((3-hydroxyphenyl) (piperidin-1-yl)methylene) indolin-2-one], the DC50 rises from under 10 µM to over 30 µM.

Compared with `Cn1cc(N/C(=C2\C(=O)Nc3ccc(Br)cc32)c2cccc(F)c2)cn1` [Example 21, (Z)-5-bromo-3-((3-fluorophenyl)((1-methyl-1H-pyrazol-4-yl)amino)methylene) indolin-2-one], `O=C1Nc2ccc(Br)cc2/C1=C(/Nc1ccnnc1)c1cccc(F)c1` [Example 40, (Z)-5-bromo-3-((3-fluorophenyl)(pyridazin-4-ylamino)methylene) indolin-2-one] is lower in DC50: over 30 µM for the first, under 10 µM for the second.

`Nc1cccc(/C(Nc2ccnnc2)=C2/C(=O)Nc3ccc(Br)cc32)c1` [Example 60, (Z)-3-((3-aminophenyl) (pyridazin-4-ylamino)methylene)-5-bromo indolin-2-one] and `O=C1Nc2ccc(Br)cc2/C1=C(/Nc1ccnnc1)c1cccc(C(F)F)c1` [Example 41, (Z)-5-bromo-3-((3-(difluoromethyl)phenyl)(pyridazin-4-ylamino)methylene) indolin-2-one] cannot be ordered by DC50: under 10 µM for the first, under 10 µM for the second.

First: NCCN/C(=C1\C(=O)Nc2ccc(Br)cc21)c1cccc(C(F)F)c1 [Example 30, (Z)-3-(((2-aminoethyl)amino)(3-(difluoromethyl)phenyl)methylene)-5-bromoindolin-2-one]
Second: N/C(=C1\C(=O)Nc2ccc(Br)cc21)c1cc(C(F)F)ccn1 [Example 75, (Z)-3-(amino(4-(difluoromethyl)pyridin-2-yl)methylene)-5-bromo indolin-2-one]
The DC50 of the first is lower: under 10 µM for the first, 10 to 30 µM for the second.

`Nc1cccc(/C(Nc2cn[nH]c2)=C2/C(=O)Nc3ccc(Br)cc32)c1` [Example 59, (Z)-3-(((1H-pyrazol-4-yl)amino)(3-aminophenyl)methylene)-5-bromoindolin-2-one] and `Nc1ccc(/C(Nc2ccnnc2)=C2/C(=O)Nc3ccc(Br)cc32)cc1O` [Example 63, (Z)-3-((4-amino-3-hydroxyphenyl)(pyridazin-4-ylamino)methylene)-5-bromoindolin-2-one] cannot be ordered by DC50: under 10 µM for the first, under 10 µM for the second.

`O=C1Nc2ccc(Br)cc2/C1=C(/NC1CCNCC1)c1cccc(O)c1` [Example 25, (Z)-5-bromo-3-((3-hydroxyphenyl) (piperidin-4-ylamino)methylene) indolin-2-one] and `O=C1Nc2ccc(Br)cc2/C1=C(/Nc1cnccn1)c1cccc(O)c1` [Example 72, (Z)-5-bromo-3-((3-hydroxyphenyl) (pyrazin-2-ylamino)methylene)indolin-2-one] cannot be ordered by DC50: under 10 µM for the first, under 10 µM for the second.

`CC(=C1C(=O)Nc2ccc(C(F)(F)F)cc21)c1cccc(O)c1` [Example 95, 3-(1-(3-Hydroxyphenyl)ethylidene)-5-(trifluoromethyl) indolin-2-one] and `N/C(=C1\C(=O)Nc2ccc(Br)cc21)c1cncc(O)c1` [Example 84, (Z)-3-(amino(5-hydroxypyridin-3-yl)methylene)-5-bromoindolin-2-one] cannot be ordered by DC50: under 10 µM for the first, under 10 µM for the second.

same assay, conditions: read-out: Daoy-ATXN1(60Q)-mATXN1 MSD (CTG normalized) DC50, Daoy-Flag-ATXN1(60Q) stable cells, compound added Day 2, lysis Day 3, final DMSO 0.3%

In the case of `CCCN/C(=C1\C(=O)Nc2ccc(Br)cc21)c1cccc(O)c1` [Example 5, (Z)-5-bromo-3-((3-hydroxyphenyl) (propylamino)methylene) indolin-2-one], the DC50 is reported as under 10 µM.

From patent US20250051282A1, “COMPOUNDS FOR TREATING POLYQ-RELATED NEURODEGENERATIVE DISORDERS” (HANGZHOU JIJING PHARMACEUTICAL TECHNOLOGY LIMITED, priority 2021, published 2025)
